Data as given in US7410797B2, “Meningeal-derived stem cells” (priority 2002, dated 2008).

Experiments:
Cells from the meninges = test: Neural differentiation of meningeal-derived stem cells in induction media; format: cell-based; conditions: for effect on neural differentiation compared with dexamethasone: used as substitutes for dexamethasone
Procedure: Cells from the meninges that are allowed to become 70% confluent (FIG. 2A) are susceptible to differentiating into nerve under two conditions: antioxidant treatment and steroid hormone treatment. […] This can also be achieved with other antioxidants (i.e., reducing agents), such as butylated hydroxyanisole (BHA) (approximately 200 μM), dithiothreitol (DTT; i.e., Cleland's reagent), as well as dithioerythritol, tributylphosphine, iodoacetamide, tris-phosphine HCl, deoxythymidine-triphosphate trilithium salt, diethylthiatricarbocyanine perchlorate, diethylthiatricarbocyanine iodide and DECROLINE D (available from BASF Corporation; Mount Olive, N.J.; generic name zinc formaldehyde sulfoxylate). These conditions are similar to those used to differentiate bone marrow-derived stem cells and adipose-derived stem cells (D. Woodbury et al., “Adult rat and human bone marrow stromal cells differentiate into neurons,” J. Neuroscience Res., 61(4):364-70 (2000)). The cells that form have a bipolar morphology and express nerve-specific markers.
The cells differentiate into what are morphologically distinct subsets of neurons when exposed to small concentrations (e.g, 100 nM) of dexamethasone; a steroid hormone.
These may therefore be used as substitutes for dexamethasone. Other steroids that may be used in accordance with this embodiment of the present invention include pregnenolone, aldosterone, testosterone, estradiol and cortisol.

Dural cells = test: Osseous differentiation of dural cells plated on substrate (alkaline phosphatase staining); format: cell-based; conditions: substrate 100 μg/cm^2
Procedure: Dural cells were forced to adopt a bony phenotype by two separate methods. The first included plating these cells on a MATRIGEL or laminin substrate (100 μg/cm^2).

## vitamin A
Cells from the meninges
  effect on neural differentiation compared with dexamethasone: elicited similar effects to dexamethasone

## CC1=C(/C=C/C(C)=C/C=C/C(C)=C/C=O)C(C)(C)CCC1 [retinaldehyde]
Cells from the meninges
  effect on neural differentiation compared with dexamethasone: elicited similar effects to dexamethasone

## CC1=C(/C=C/C(C)=C/C=C/C(C)=C/CO)C(C)(C)CCC1 [retinol]
Cells from the meninges
  effect on neural differentiation compared with dexamethasone: elicited similar effects to dexamethasone

## laminin
Dural cells
  expression of alkaline phosphatase (differentiated bone marker): expressed alkaline phosphatase (a differentiated bone marker) within seven days

## C=C1/C(=C\C=C2/CCC[C@]3(C)[C@@H]([C@H](C)CCCC(C)(C)O)CC[C@@H]23)C[C@@H](O)C[C@@H]1O [1,25-dihydroxy vitamin D3]
Cells from the meninges
  effect on neural differentiation compared with dexamethasone: elicited similar effects to dexamethasone

## OCCS [β-mercaptoethanol]
Cells from the meninges; pre-induction media with 1 mM β-mercaptoethanol for 24 hours, then induction media DMEM, 5 mM β-mercaptoethanol, cells 70% confluent
  differentiation into neural-like cells: differentiate into neural-like cells within six hours
